Results on 27 compounds are retold here after patent US10766869B2, “Triazoles for the treatment of demyelinating dieases” (Vertex Pharmaceuticals Incorporated, priority 2015, dated 2020).

This experiment deals with primary rat mixed cortical cells. As to the kind of experiment: In vitro myelination assay (MBP positive myelin strands, fold myelin pixels above background). Format: cell-based. The note with it: Rattus norvegicus; for fold induction at 1 µM: 1.0 μM compound; for fold induction at 10 µM: 10.0 μM compound. Summed up: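 Compounds at 1.0 and 10.0 μM were incubated 14 days with dissociated P1 rat cortical cells, which were then fixed and immunostained for MBP. Myelination was scored as fold MBP myelin pixels per well over the no-compound baseline.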

Setting [1] is: relative to baseline of no added compound, read-out: Fold myelin pixels above background, 1.0 μM.
[2] abbreviates: relative to baseline of no added compound, read-out: Fold myelin pixels above background, 10.0 μM.
[3] abbreviates: read-out: Fold myelin pixels above background relative to baseline of no added compound.
Setting [4] is: relative to baseline of no added compound, read-out: Fold myelin pixels above background.

Each structure is given as a SMILES string. Read-outs that look alike come from different tables or passages of the source.

As to `Cc1cc(Nc2ncn(-c3cc(C)cc(F)c3)n2)cc(N2CCN(C3COC3)CC2)c1` [Compound 323, 1-(3-fluoro-5-methyl-phenyl)-N-[3-methyl-5-[4-(oxetan-3-yl)piperazin-1-yl]phenyl]-1,2,4-triazol-3-amine], under setting [1], the fold induction at 1 µM was 1000 to 10000. Further, the fold induction at 10 µM under setting [2] was in the range of 100 to 1000.

Turning to `[2H]C1([2H])N(c2cc(Nc3ncn(-c4cc(F)cc(F)c4)n3)cc(C(F)(F)F)c2)C([2H])([2H])C([2H])([2H])C([2H])([2H])C1([2H])[2H]` [Compound 1032, N-[3-(2,2,3,3,4,4,5,5,6,6-decadeuterio-1-piperidyl)-5-(trifluoromethyl)phenyl]-1-(3,5-difluorophenyl)-1,2,4-triazol-3-amine], under setting [3], the fold induction at 1 µM is 10 to 100 and the fold induction at 10 µM lay in the range of 1 to 10.

On to `CN1CCN(c2cc(Nc3ncn(-c4cc(F)cc(F)c4)n3)cc(N3CCN(C)CC3)c2)CC1` [Compound 657, N-[3,5-bis(4-methylpiperazin-1-yl)phenyl]-1-(3,5-difluorophenyl)-1,2,4-triazol-3-amine], for which, under setting [4], the fold induction at 1 µM lay in the range of 1 to 10 and the fold induction at 10 µM is at most 1.

Take `c1ccc(-n2cnc(Nc3cc(C4CCOCC4)cc(C4CCOCC4)c3)n2)cc1` [Compound 10, N-[3,5-di(tetrahydropyran-4-yl)phenyl]-1-phenyl-1,2,4-triazol-3-amine]: the fold induction at 1 µM under setting [1] lay within 1 to 10. The fold induction at 10 µM under setting [2] was at most 1.

As to `Fc1cc(F)cc(-n2cnc(Nc3cc(C4CC4)nc(N4CCOCC4)c3)n2)c1` [Compound 405, 2-cyclopropyl-N-[1-(3,5-difluorophenyl)-1,2,4-triazol-3-yl]-6-morpholino-pyridin-4-amine], under setting [4], the fold induction at 1 µM was 100 to 1000 and the fold induction at 10 µM lay within 1000 to 10000.

`Fc1cc(Nc2ncn(-c3cnccn3)n2)cc(N2CCN(C3COC3)CC2)c1` [Compound 598, N-[3-fluoro-5-[4-(oxetan-3-yl)piperazin-1-yl]phenyl]-1-pyrazin-2-yl-1,2,4-triazol-3-amine]: under setting [4], the fold induction at 1 µM fell in the range of 1 to 10 and the fold induction at 10 µM fell in the range of 1 to 10.

As to `COC(=O)c1cc(Nc2ncn(-c3cc(F)cc(F)c3)n2)nc(N2CCOCC2)c1` [Compound 675, methyl 2-[[1-(3,5-difluorophenyl)-1,2,4-triazol-3-yl]amino]-6-morpholino-pyridine-4-carboxylate], under setting [4], the fold induction at 1 µM lay in the range of 1 to 10 and the fold induction at 10 µM lay in the range of 1 to 10.

With `Cc1cc(Nc2ncn(-c3ccccc3)n2)cc(NC2CCN(C3COC3)CC2)c1` [Compound 334, 5-methyl-N1-[1-(oxetan-3-yl)-4-piperidyl]-N3-(1-phenyl-1,2,4-triazol-3-yl)benzene-1,3-diamine], under setting [1], the fold induction at 1 µM lay in the range of 100 to 1000. The fold induction at 10 µM under setting [2] lay in the range of 1000 to 10000.

As for `Fc1cccc(-n2cnc(Nc3cc(Cl)cc(N4CC(N5CCOCC5)C4)c3)n2)c1` [Compound 827, N-[3-chloro-5-(3-morpholinoazetidin-1-yl)phenyl]-1-(3-fluorophenyl)-1,2,4-triazol-3-amine], under setting [3], the fold induction at 1 µM is 10 to 100 and the fold induction at 10 µM is 1 to 10.

In the case of `CCN(CC)CC1CN(c2cc(C)cc(Nc3ncn(-c4cc(F)cc(F)c4)n3)c2)CCO1` (stereo not drawn) [Compound 1017, N-[3-[2-(diethylaminomethyl)morpholin-4-yl]-5-methyl-phenyl]-1-(3,5-difluorophenyl)-1,2,4-triazol-3-amine], under setting [3], the fold induction at 1 µM fell in the range of 10 to 100 and the fold induction at 10 µM is at most 1.

For `CCOC(=O)CN1CCN(c2cc(C)cc(Nc3ncn(-c4cc(F)cc(F)c4)n3)c2)CC1` [Compound 72, ethyl 2-[4-[3-[[1-(3,5-difluorophenyl)-1,2,4-triazol-3-yl]amino]-5-methyl-phenyl]piperazin-1-yl]acetate], under setting [1], the fold induction at 1 µM was in the range of 10 to 100. Further, the fold induction at 10 µM under setting [2] lay in the range of 1 to 10.

Consider `[2H]C1([2H])N(c2cc(C)cc(Nc3ncn(-c4cc(F)cc(F)c4)n3)c2)C([2H])([2H])C([2H])([2H])N(C2COC2)C1([2H])[2H]` [Compound 979, 1-(3,5-difluorophenyl)-N-[3-methyl-5-[2,2,3,3,5,5,6,6-octadeuterio-4-(oxetan-3-yl)piperazin-1-yl]phenyl]-1,2,4-triazol-3-amine], for which, under setting [3], the fold induction at 1 µM is 100 to 1000 and the fold induction at 10 µM was at most 1.

Turning to `Cc1cc(Nc2ncn(-c3cccc(F)c3)n2)cc(N2CC(N3CCOCC3)C2)c1` [Compound 721, 1-(3-fluorophenyl)-N-[3-methyl-5-(3-morpholinoazetidin-1-yl)phenyl]-1,2,4-triazol-3-amine], under setting [4], the fold induction at 1 µM lay within 10 to 100 and the fold induction at 10 µM is at most 1.

Consider `Cc1cc(Nc2ncn(-c3ccccc3)n2)nc(N2CC(N3CCOCC3)C2)c1` [Compound 502, 4-methyl-6-(3-morpholinoazetidin-1-yl)-N-(1-phenyl-1,2,4-triazol-3-yl)pyridin-2-amine], for which, under setting [4], the fold induction at 1 µM fell in the range of 1 to 10 and the fold induction at 10 µM was at most 1.

Turning to `Cc1cc(Nc2ncn(-c3cc(F)cc(F)c3)n2)cc(N2CC(NCCO)C2)c1` [Compound 791, 2-[[1-[3-[[1-(3,5-difluorophenyl)-1,2,4-triazol-3-yl]amino]-5-methyl-phenyl]azetidin-3-yl]amino]ethanol], under setting [3], the fold induction at 1 µM was 10 to 100 and the fold induction at 10 µM is at most 1.

Turning to `Cc1cc(Nc2ncn(-c3cccc(C(F)F)c3)n2)cc(N2CCN(C3COC3)CC2)c1` [Compound 833, 1-[3-(difluoromethyl)phenyl]-N-[3-methyl-5-[4-(oxetan-3-yl)piperazin-1-yl]phenyl]-1,2,4-triazol-3-amine], under setting [3], the fold induction at 1 µM lay within 1 to 10 and the fold induction at 10 µM was at most 1.

`Cc1cc(Nc2ncn(-c3cccnc3)n2)cc(C2COC2)c1` [Compound 270, N-[3-methyl-5-(oxetan-3-yl)phenyl]-1-(3-pyridyl)-1,2,4-triazol-3-amine]: under setting [1], the fold induction at 1 µM was 100 to 1000. Besides, under setting [2], the fold induction at 10 µM lay within 100 to 1000.

In the case of `Cc1cc(Nc2ncn(-c3cc(C)cc(F)c3)n2)cc(N2CCN(C)CC2)c1` [Compound 424, 1-(3-fluoro-5-methyl-phenyl)-N-[3-methyl-5-(4-methylpiperazin-1-yl)phenyl]-1,2,4-triazol-3-amine], under setting [4], the fold induction at 1 µM is 100 to 1000 and the fold induction at 10 µM was at most 1.

With `Fc1cc(Nc2ncn(-c3ccccc3)n2)cc(C2CCNC2)c1` (stereo not drawn) [Compound 452, N-(3-fluoro-5-pyrrolidin-3-yl-phenyl)-1-phenyl-1,2,4-triazol-3-amine], under setting [4], the fold induction at 1 µM lay within 10 to 100 and the fold induction at 10 µM is at most 1.

As to `Cc1cc(Nc2ncn(-c3cc(F)cc(F)c3)n2)cc(N2C[C@H]3C[C@@H]2CO3)c1` [Compound 628, 1-(3,5-difluorophenyl)-N-[3-methyl-5-[(1R,4R)-2-oxa-5-azabicyclo[2.2.1]heptan-5-yl]phenyl]-1,2,4-triazol-3-amine], under setting [4], the fold induction at 1 µM is 10 to 100 and the fold induction at 10 µM lay within 1 to 10.

Take `Fc1cc(F)cc(-n2cnc(Nc3cc(N4CCN(C5COC5)CC4)nc(C(F)(F)F)c3)n2)c1` [Compound 760, N-[1-(3,5-difluorophenyl)-1,2,4-triazol-3-yl]-2-[4-(oxetan-3-yl)piperazin-1-yl]-6-(trifluoromethyl)pyridin-4-amine]: under setting [4], the fold induction at 1 µM was in the range of 1 to 10 and the fold induction at 10 µM is at most 1.

`c1ccc(-n2cnc(Nc3cc(C4CC4)nc(N4CCC5(CC4)OCCO5)c3)n2)cc1` [Compound 9, 2-cyclopropyl-6-(1,4-dioxa-8-azaspiro[4.5]decan-8-yl)-N-(1-phenyl-1,2,4-triazol-3-yl)pyridin-4-amine]: the fold induction at 1 µM under setting [1] is 1000 to 10000. Also, the fold induction at 10 µM under setting [2] fell in the range of 100 to 1000.

As for `CC(C)(O)[C@@H]1CN(c2cc(Nc3ncn(-c4cc(F)cc(F)c4)n3)cc(C(F)(F)F)c2)CCN1` [Compound 123, 2-[(2S)-4-[3-[[1-(3,5-difluorophenyl)-1,2,4-triazol-3-yl]amino]-5-(trifluoromethyl)phenyl]piperazin-2-yl]propan-2-ol], under setting [1], the fold induction at 1 µM lay in the range of 1 to 10. The fold induction at 10 µM under setting [2] was at most 1.

Consider `Cc1cc(Nc2ncn(-c3cc(F)cc(F)c3)n2)cc(N2CCNCC2)c1` [Compound 77, 1-(3,5-difluorophenyl)-N-(3-methyl-5-piperazin-1-yl-phenyl)-1,2,4-triazol-3-amine], for which, under setting [1], the fold induction at 1 µM is 100 to 1000. Moreover, the fold induction at 10 µM under setting [2] was at most 1.

Consider `Cc1cc(Nc2ncn(-c3cc(F)cc(F)c3)n2)cc(N[C@H]2C[C@H](N3CCOCC3)C2)c1` (single isomer, unassigned) [Compound 649, N1-[1-(3,5-difluorophenyl)-1,2,4-triazol-3-yl]-5-methyl-N3-(3-morpholinocyclobutyl)benzene-1,3-diamine], for which, under setting [4], the fold induction at 1 µM lay within 10 to 100 and the fold induction at 10 µM was at most 1.

On to `[2H]c1nc(Nc2cc(C)cc(N3CCN(C4COC4)CC3)c2)nn1-c1cc(F)cc(F)c1` [Compound 1080, 5-deuterio-1-(3,5-difluorophenyl)-N-[3-methyl-5-[4-(oxetan-3-yl)piperazin-1-yl]phenyl]-1,2,4-triazol-3-amine], for which, under setting [3], the fold induction at 1 µM lay in the range of 10 to 100 and the fold induction at 10 µM was in the range of 10 to 100.

Turning to `Cc1cc(Nc2ncn(-c3cc(F)cc(F)c3)n2)cc(OCC2CC(F)(F)C2)c1` [Compound 706, N-[3-[(3,3-difluorocyclobutyl)methoxy]-5-methyl-phenyl]-1-(3,5-difluorophenyl)-1,2,4-triazol-3-amine], under setting [4], the fold induction at 1 µM was in the range of 1 to 10 and the fold induction at 10 µM is 1 to 10.
